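Dose response: 5 concentrations. Exposure: 48 h. Format: 96-well plates. Endpoint: linear interpolation; highest concentration if not reached. Abbreviation: GI50, concentration required for 50% inhibition of growth. At the TGI there is no net growth.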
Legend:
Assay in all cases: growth of human tumour cells (NCI), 48 h
HCT-116 colon = system: HCT-116 colon
SNB-75 CNS = system: SNB-75 CNS
HL-60(TB) leukemia = system: HL-60(TB) leukemia
CCRF-CEM leukemia = system: CCRF-CEM leukemia
SK-OV-3 ovarian = system: SK-OV-3 ovarian
SR leukemia = system: SR leukemia
RPMI-8226 leukemia = system: RPMI-8226 leukemia
SK-MEL-5 melanoma = system: SK-MEL-5 melanoma
UACC-62 melanoma = system: UACC-62 melanoma
SF-295 CNS = system: SF-295 CNS

SMILES	GI50 (HCT-116 colon)	TGI (HCT-116 colon)	GI50 (SNB-75 CNS)	TGI (SNB-75 CNS)	GI50 (HL-60(TB) leukemia)	TGI (HL-60(TB) leukemia)	GI50 (CCRF-CEM leukemia)	TGI (CCRF-CEM leukemia)	GI50 (SK-OV-3 ovarian)	TGI (SK-OV-3 ovarian)	GI50 (SR leukemia)	GI50 (RPMI-8226 leukemia)	TGI (RPMI-8226 leukemia)	GI50 (SK-MEL-5 melanoma)	TGI (SK-MEL-5 melanoma)	GI50 (UACC-62 melanoma)	TGI (UACC-62 melanoma)	GI50 (SF-295 CNS)	TGI (SF-295 CNS)	TGI (SR leukemia)
O=C(Nc1ccc(Br)c(Cl)c1)c1cc(F)ccc1O	0.423 µM	2.08 µM	0.591 µM	4.53 µM	0.97 µM	2.83 µM	1.43 µM	> 15.1 µM	0.633 µM	3.79 µM	0.547 µM	0.231 µM	1.02 µM	0.358 µM	1.05 µM	0.242 µM	2.09 µM	0.933 µM	1.89 µM	
COC(=O)C#Cc1ccc([N+](=O)[O-])cc1		3.46 µM		7.34 µM		4.32 µM		2.27 µM		19 µM			1.48 µM		6.18 µM		6.86 µM		10.9 µM	1.07 µM
